According to patent publication US7223836B2, “Peptides for chlamydophila pneumoniae vaccine and diagnosis” (The United States of America as represented by the …, priority 2001, dated 2007):
No end group written: not given here.

What was measured:
8A6 mAb = assay: competitive inhibition ELISA: peptide blocks 8A6 mAb binding to sonicated C. pneumoniae; design: species or system murine
Experimental: To perform these experiments, an ELISA was utilized in which mAb and inhibitor (phage) were premixed, incubated for 2 hours, and then plated onto the microtiter plates with renographin purified, sonicated whole-cell C. pneumoniae.
Several methods were used to determine binding specificity. […] The best synthetic peptides were selected by competing the peptide against the respective native C. pneumoniae lysate for binding to the target mAb.

[1] = immunization of naive mice, antiserum ELISA; type: in vivo; settings: intraperitoneal, 50–200 μg with aluminum hydroxide, boosters
Experimental: (§1) In order to identify immunologically reactive C. pneumoniae peptides that can be used in the development of a C. pneumoniae vaccine, naive mice and rabbits were immunized with various C. pneumoniae polypeptides. An exemplary protocol is as follows: 50–200 μg of CP-8A6-B1 (SEQ ID NO:4) was mixed with 1 mg of aluminum hydroxide, a less inflammatory alternative to Freund's adjuvant. Rabbits were injected subcutaneously at multiple sites with 0.05 ml of inoculum, whereas mice were immunized intraperitoneally with no more than 0.2 ml of inoculum. At least 2–3 weeks following the initial immunization, the mice and rabbits were given their first booster immunizations. Mice were given subsequent boosters at two week intervals for up to 6 total injections, whereas rabbits were typically injected every 4–6 weeks. […] Briefly, after the antigen was immobilized, the bound peptide was tested with serial dilutions of the mouse and rabbit antisera and was detected with a goat anti-mouse IgG or a goat anti-rabbit IgG heavy plus light chain antibody horseradish peroxidase conjugate (Pierce Scientific). […] Absorbance at 490 nm was recorded with an enzyme immunoassay reader (Bio-Tek Instruments, Burlington, Vt.). […] Wells with optical density readings greater than 0.2 units at 490 nm were indicative of an immunologically reactive antiserum.

[2] = immunization of naive rabbits, antiserum ELISA; type: in vivo; settings: subcutaneous, 50–200 μg with aluminum hydroxide, boosters
Experimental: as §1

[3] = test system: 8A6 mAb binding to fixed, cultured C. pneumoniae cells (RBs and EBs); assay: competitive inhibition indirect IFA; design: species or system murine; settings: serially diluted peptide
Experimental: The indirect immunofluorescence assay (IFA) was performed as described previously (Storey et al., 1993 and Wong Skelton Chan, 1992) with modifications. Antibiotic-free Buffalo African Green monkey cells were seeded into 1 dram shell vials or 24-well tissue culture trays containing 12 mm cover slips at a density of 3.0×10^5 cells/mL. Cells were incubated for 24 hours at 37° C. and checked for confluency. Cell cultures were infected by the addition of C. pneumoniae followed by centrifugation at 3000× g. Inclusions were counted using the Pathfinder® Chlamydia Culture Confirmation System staining kit (Sanofi Diagnostics Pasteur, Redmond, Wash.) as per manufacturer specifications. The 8A6 mAb was used as previously described (Wong et al. 1992) for detection of C. pneumoniae inclusions and to determine species specificity.
A competitive inhibition IFA assay was performed using the previously described IFA assay with modification. […]
Due to the subjective nature of IFA tests, it is difficult to standardize a competitive inhibition to obtain fluorescence measures. Instead, slides were scored from 1 to 4 such that a value of 3+ equals the endpoint titer and changes due to inhibition were scored empirically from comparison with control slides. […]

[4] = competitive inhibition ELISA, binding of 8A6 mAb to sonicated C. pneumoniae fixed to solid phase

Sequence	IC50 (50% Inhibiting Concentration) (8A6 mAb; [4]) [µg/mL]	percent inhibition (8A6 mAb; [4]) [%]	percent inhibition (8A6 mAb; at 50 μg/mL of peptide) [%]	immune response (antiserum reactivity by ELISA) [1]	immune response (antiserum reactivity by ELISA) [2]	peptide concentration down to which any observable binding of 8A6 mAb was completely blocked [3] [ng/mL]
AFAQAPTHQLSL [CP-8A6-B3, AFAQAPTHQLSL]	6.46	67.8				
ESNPVDGAHLSL [CP-8A6-B10A, ESNPVDGAHLSL]	18.90	57.4				
LRNCEQDFFTLN [CP-8A6-A3, LRNCEQDFFTLN]	18.54	95.1				
RRLGRQTYDNES [CP-8A6-A1, RRLGRQTYDNES]	4.82	84.5				
PNEPDDLALMRIIRI [CP-8A6-B1, PNEPDDLALMRIIRI]	2.93	95.44	95.44	produced an immune response	produced an immune response	100
HDEGRQIIQFEE [CP-8A6-A2, HDEGRQIIQFEE]	18.29	83.5				
